# Read-outs that look alike come from different tables or passages of the source.
# Key:
# lymphocytes = assay: Lymphocyte reduction in C57BL/6 mice; assay type: in vivo; conditions: Mus musculus, ip
# Procedure: An experiment was performed to evaluate the effect of Bcl-2 selective/Bcl-xL sparing compounds on immune cells and platelets, as evaluated in C57Bl/6 mice. Mice were treated four days with compounds (doses of 30 mg/kg, administered by intraperitoneal injection every day) and cell numbers were measured with a Cell Dyn hematology analyzer 24 hours after the first and last doses. Exposure of the compound (area under the curve) was calculated by using time points of 1, 6, 10 and 24 hours after the last dose.
# RS4;11 cells = assay: RS4;11 cell viability assay (CellTiter Glo); assay type: cell-based; conditions: 10% human serum, 48 hours
# Excerpt: The acute lymphoblastic leukemia (ALL) cell line RS4;11 was used as the primary human cell line to assess the cellular activity of Bcl-2 selective agents in vitro and their efficacy in vivo. Previous studies have shown by BH3 profiling, a mitochondrial assay that classifies blocks in the intrinsic apoptotic pathway, that RS4;11 cells were highly dependant on BCL-2 for survival and sensitive to the Bcl-2 family member inhibitor ABT-737 (Blood, 2008, Vol. 111, 2300-2309).
# RS4;11 cells were cultured in RPMI-1640 supplemented with 2 mM L-glutamine, 10% FBS, 1 mM sodium pyruvate, 2 mM HEPES, 1% penicillin/streptomycin (Invitrogen), 4.5 g/L glucose and maintained at 37 C containing 5% CO2. To test for the cellular activity of compounds in vitro, cells were treated at 50,000 cells per well in 96-well microtiter plates in the presence of 10% human serum for 48 hours in a humidified chamber with 5% CO2. Cell cytotoxicity EC50 values were assessed using CellTiter Glo (Promega) according to the manufacturer's recommendations. The EC50 values were determined as a percentage of viable cells following treatment compared to the untreated control cells.
# GST-Bcl-2 = GST-Bcl-2 (Homo sapiens, UniProt P10415); assay: TR-FRET Bcl-2 binding assay (F-Bak peptide probe); conditions: GST-Bcl-2 1 nM, F-Bak peptide probe 100 nM, Tb-anti-GST 1 nM; Wang's equation; '<' = below limit of detection
# Chain of GST-Bcl-2 (P10415 whole entry): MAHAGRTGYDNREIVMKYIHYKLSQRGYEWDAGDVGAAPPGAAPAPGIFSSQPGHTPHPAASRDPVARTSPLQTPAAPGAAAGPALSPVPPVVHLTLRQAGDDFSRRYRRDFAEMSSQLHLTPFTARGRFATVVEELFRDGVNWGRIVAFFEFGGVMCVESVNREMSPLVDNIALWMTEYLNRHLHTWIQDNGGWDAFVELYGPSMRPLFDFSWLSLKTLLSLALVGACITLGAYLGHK
# Procedure: Determination of the utility of compounds of this invention as binders to and inhibitors of anti-apoptotic Bcl-2 proteins was performed using the Time Resolved-Fluorescence Resonance Energy Transfer (TR-FRET) Assay. Tb-anti-GST antibody was purchased from Invitrogen (Catalog No. PV4216).
# Representative compounds were serially diluted in dimethyl sulfoxide (DMSO) starting at 50 μM (2× starting concentration; 10% DMSO) and 10 μL were transferred into a 384-well plate. The samples are then mixed on a shaker for 1 minute and incubated for an additional 3 hours at room temperature. For each assay, the probe/antibody and protein/probe/antibody were included on each assay plate as negative and positive controls, respectively. Fluorescence was measured on the Envision (Perkin Elmer) using a 340/35 nm excitation filter and 520/525 (F-Bak peptide) and 495/510 nm (Tb-labeled […] antibody) emission filters. Dissociation constants (Ki) are shown in TABLE 2 below and were determined using Wang's equation (Wang Z.-X., An Exact Mathematical Expression For Describing Competitive Binding Of Two Different Ligands To A Protein Molecule. FEBS Lett. 1995, 360:111-4).
# The samples were then mixed on a shaker for 1 minute and incubated for an additional 3 hours at room temperature. For each assay, the probe/antibody and protein/probe/antibody were included on each assay plate as negative and positive controls, respectively. Fluorescence was measured on the Envision (Perkin Elmer) using a 340/35 nm excitation filter and 520/525 (F-Bak peptide) and 495/510 nm (Tb-labeled anti-Histidine antibody) emission filters.
# Inhibition constants (Ki) for compounds were determined using Wang's equation (Wang Zx. An Exact Mathematical Expression For Describing Competitive Binding Of Two Different Ligands To A Protein Molecule. FEBS Lett. 1995, 360:111-4).
# The inhibition constant (Ki) is the dissociation constant of an enzyme-inhibitor complex or a protein/small molecule complex, wherein the small molecule is inhibiting binding of one protein to another protein or peptide. So a large Ki value indicates a low binding affinity and a small Ki value indicates a high binding affinity. […] The compounds are therefore expected to have utility in treatment of diseases during which anti-apoptotic Bcl-2 protein is expressed. Biological Data
# [1] = 30 mg/kg intraperitoneal every day for four days, 24 hours after the last dose, read-out: Lymphocyte reduction % inh. day 4
# [2] = 30 mg/kg intraperitoneal every day, 24 hours after the first dose, read-out: Lymphocyte reduction % inh. day 1
compound,measurement,setting,value
"C[C@H](Nc1ccc(S(=O)(=O)NC(=O)c2ccc(N3CCN(CC4=C(c5ccc(Cl)cc5)CC(C)(C)CC4)CC3)cc2Oc2cnc3[nH]ccc3c2)cc1[N+](=O)[O-])C1CCOCC1 [Example 2, 4-(4-{[2-(4-chlorophenyl)-4,4-dimethylcyclohex-1-en-1-yl]methyl}piperazin-1-yl)-N-[(3-nitro-4-{[(1S)-1-(tetrahydro-2H-pyran-4-yl)ethyl]amino}phenyl)sulfonyl]-2-(1H-pyrrolo[2,3-b]pyridin-5-yloxy)benzamide]",inhibition at 30 mg/kg,lymphocytes; [1],< 15%
same,inhibition at 30 mg/kg,lymphocytes; [2],< 15%
same,EC50,RS4;11 cells,160 nM
"CC1(C)CCC(CN2CCN(c3ccc(C(=O)NS(=O)(=O)c4ccc(NC[C@H]5CC[C@]6(CCCO6)CC5)c([N+](=O)[O-])c4)c(Oc4cnc5[nH]ccc5c4)c3)CC2)=C(c2ccc(Cl)cc2)C1 [Example 4, 4-(4-{[2-(4-chlorophenyl)-4,4-dimethylcyclohex-1-en-1-yl]methyl}piperazin-1-yl)-N-[(3-nitro-4-{[(5S,8S)-1-oxaspiro[4.5]dec-8-ylmethyl]amino}phenyl)sulfonyl]-2-(1H-pyrrolo[2,3-b]pyridin-5-yloxy)benzamide]",Ki,GST-Bcl-2,< 0.1 nM
same,EC50,RS4;11 cells,57 nM
"CC1(C)CCC(CN2CCN(c3ccc(C(=O)NS(=O)(=O)c4ccc(NCC5CCC6(CC5)OCCO6)c([N+](=O)[O-])c4)c(Oc4cnc5[nH]ccc5c4)c3)CC2)=C(c2ccc(Cl)cc2)C1 [Example 7, 4-(4-{[2-(4-chlorophenyl)-4,4-dimethylcyclohex-1-en-1-yl]methyl}piperazin-1-yl)-N-({4-[(1,4-dioxaspiro[4.5]dec-8-ylmethyl)amino]-3-nitrophenyl}sulfonyl)-2-(1H-pyrrolo[2,3-b]pyridin-5-yloxy)benzamide]",inhibition at 30 mg/kg,lymphocytes; [1],55%
same,inhibition at 30 mg/kg,lymphocytes; [2],64%
same,EC50,RS4;11 cells,6.8 nM
"CC1(C)CCC(CN2CCN(c3ccc(C(=O)NS(=O)(=O)c4ccc(N5CCOCC5)c([N+](=O)[O-])c4)c(Oc4cnc5[nH]ccc5c4)c3)CC2)=C(c2ccc(Cl)cc2)C1 [Example 8, 4-(4-{[2-(4-chlorophenyl)-4,4-dimethylcyclohex-1-en-1-yl]methyl}piperazin-1-yl)-N-{[4-(morpholin-4-yl)-3-nitrophenyl]sulfonyl}-2-(1H-pyrrolo[2,3-b]pyridin-5-yloxy)benzamide]",Ki,GST-Bcl-2,0.7 nM
same,EC50,RS4;11 cells,> 1000 nM
"CC1(C)CCC(CN2CCN(c3ccc(C(=O)NS(=O)(=O)c4ccc(NC56CC7CC(CC(O)(C7)C5)C6)c([N+](=O)[O-])c4)c(Oc4cnc5[nH]ccc5c4)c3)CC2)=C(c2ccc(Cl)cc2)C1 [Example 13, 4-(4-{[2-(4-chlorophenyl)-4,4-dimethylcyclohex-1-en-1-yl]methyl}piperazin-1-yl)-N-({4-[(3-hydroxytricyclo[3.3.1.1^3,7]dec-1-yl)amino]-3-nitrophenyl}sulfonyl)-2-(1H-pyrrolo[2,3-b]pyridin-5-yloxy)benzamide]",EC50,RS4;11 cells,130 nM
"COC(=O)C1(CNc2ccc(S(=O)(=O)NC(=O)c3ccc(N4CCN(CC5=C(c6ccc(Cl)cc6)CC(C)(C)CC5)CC4)cc3Oc3cnc4[nH]ccc4c3)cc2[N+](=O)[O-])CCOCC1 [Example 17, methyl 4-{[(4-{[4-(4-{[2-(4-chlorophenyl)-4,4-dimethylcyclohex-1-en-1-yl]methyl}piperazin-1-yl)-2-(1H-pyrrolo[2,3-b]pyridin-5-yloxy)benzoyl]sulfamoyl}-2-nitrophenyl)amino]methyl}tetrahydro-2H-pyran-4-carboxylate]",EC50,RS4;11 cells,85 nM
"CC1(C)CCC(CN2CCN(c3ccc(C(=O)NS(=O)(=O)c4ccc(NC[C@@H]5CCCOCC5)c([N+](=O)[O-])c4)c(Oc4cnc5[nH]ccc5c4)c3)CC2)=C(c2ccc(Cl)cc2)C1 [Example 19, 4-(4-{[2-(4-chlorophenyl)-4,4-dimethylcyclohex-1-en-1-yl]methyl}piperazin-1-yl)-N-[(3-nitro-4-{[(4R)-oxepan-4-ylmethyl]amino}phenyl)sulfonyl]-2-(1H-pyrrolo[2,3-b]pyridin-5-yloxy)benzamide]",inhibition at 30 mg/kg,lymphocytes; [1],45%
same,inhibition at 30 mg/kg,lymphocytes; [2],49%
same,EC50,RS4;11 cells,14 nM
"CC1(C)CCC(CN2CCN(c3ccc(C(=O)NS(=O)(=O)c4ccc(NCC5(F)COCCOC5)c([N+](=O)[O-])c4)c(Oc4cnc5[nH]ccc5c4)c3)CC2)=C(c2ccc(Cl)cc2)C1 [Example 39, 4-(4-{[2-(4-chlorophenyl)-4,4-dimethylcyclohex-1-en-1-yl]methyl}piperazin-1-yl)-N-[(4-{[(6-fluoro-1,4-dioxepan-6-yl)methyl]amino}-3-nitrophenyl)sulfonyl]-2-(1H-pyrrolo[2,3-b]pyridin-5-yloxy)benzamide]",EC50,RS4;11 cells,40 nM
"CC1(C)CCC(CN2CCN(c3ccc(C(=O)NS(=O)(=O)c4ccc(NCC5CCOCC5)c([N+](=O)[O-])c4)c(Oc4cnc5[nH]ccc5c4)c3)CC2)=C(c2ccc(Cl)cc2F)C1 [Example 48, 4-(4-{[2-(4-chloro-2-fluorophenyl)-4,4-dimethylcyclohex-1-en-1-yl]methyl}piperazin-1-yl)-N-({3-nitro-4-[(tetrahydro-2H-pyran-4-ylmethyl)amino]phenyl}sulfonyl)-2-(1H-pyrrolo[2,3-b]pyridin-5-yloxy)benzamide]",inhibition at 30 mg/kg,lymphocytes; [1],78%
same,inhibition at 30 mg/kg,lymphocytes; [2],76%
same,EC50,RS4;11 cells,3.3 nM
"CC1(C)CCC(CN2CCN(c3ccc(C(=O)NS(=O)(=O)c4ccc(NCC5CCOCC5)c([N+](=O)[O-])c4)c(Oc4cnc5[nH]ccc5c4)c3)CC2)=C(c2ccc(Cl)c(F)c2)C1 [Example 49, 4-(4-{[2-(4-chloro-3-fluorophenyl)-4,4-dimethylcyclohex-1-en-1-yl]methyl}piperazin-1-yl)-N-({3-nitro-4-[(tetrahydro-2H-pyran-4-ylmethyl)amino]phenyl}sulfonyl)-2-(1H-pyrrolo[2,3-b]pyridin-5-yloxy)benzamide]",EC50,RS4;11 cells,46 nM
"CCC1(CNc2ccc(S(=O)(=O)NC(=O)c3ccc(N4CCN(CC5=C(c6ccc(Cl)cc6)CC(C)(C)CC5)CC4)cc3Oc3cnc4[nH]ccc4c3)cc2[N+](=O)[O-])CCOCC1 [Example 50, 4-(4-{[2-(4-chlorophenyl)-4,4-dimethylcyclohex-1-en-1-yl]methyl}piperazin-1-yl)-N-[(4-{[(4-ethyltetrahydro-2H-pyran-4-yl)methyl]amino}-3-nitrophenyl)sulfonyl]-2-(1H-pyrrolo[2,3-b]pyridin-5-yloxy)benzamide]",EC50,RS4;11 cells,52 nM
"CC1(C)CCC(CN2CCN(c3ccc(C(=O)NS(=O)(=O)c4ccc(NCC5CCOCC5)c([N+](=O)[O-])c4)c(Oc4cnc5[nH]ccc5c4)c3)CC2)=C(c2ccc(C3CC3)cc2)C1 [Example 52, 4-(4-{[2-(4-cyclopropylphenyl)-4,4-dimethylcyclohex-1-en-1-yl]methyl}piperazin-1-yl)-N-({3-nitro-4-[(tetrahydro-2H-pyran-4-ylmethyl)amino]phenyl}sulfonyl)-2-(1H-pyrrolo[2,3-b]pyridin-5-yloxy)benzamide]",inhibition at 30 mg/kg,lymphocytes; [1],51%
same,inhibition at 30 mg/kg,lymphocytes; [2],54%
same,EC50,RS4;11 cells,16 nM
"CC1(C)CCC(CN2CCN(c3ccc(C(=O)NS(=O)(=O)c4ccc(NCC5CCOCC5)c([N+](=O)[O-])c4)c(Oc4cnc5[nH]ccc5c4)c3)CC2)=C(c2ccc(C(F)F)cc2)C1 [Example 54, 4-[4-({2-[4-(difluoromethyl)phenyl]-4,4-dimethylcyclohex-1-en-1-yl}methyl)piperazin-1-yl]-N-({3-nitro-4-[(tetrahydro-2H-pyran-4-ylmethyl)amino]phenyl}sulfonyl)-2-(1H-pyrrolo[2,3-b]pyridin-5-yloxy)benzamide]",EC50,RS4;11 cells,9.9 nM
